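1) Cells in 96-well plates. 2) Compound, 48 h, 5 concentrations. 3) Linear interpolation between surrounding doses. 4) Unreached endpoint = highest concentration. GI50 marks 50% less growth.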 Active and inactive are the calls of the source. Rule as the data show it: active = GI50 up to about 1.1 µM and inactive = higher.
Key:
Experiment in all cases: DTP human tumour cell line panel, 48 h
SK-MEL-2 = test system: SK-MEL-2
K562 = test system: K562
TK-10 = test system: TK-10
IGROV-1 = test system: IGROV-1
SW-620 = test system: SW-620
SK-MEL-28 = test system: SK-MEL-28
M14 = test system: M14
HOP-92 = test system: HOP-92
EKVX = test system: EKVX
HCT-15 = test system: HCT-15
SF-268 = test system: SF-268
SNB-19 = test system: SNB-19
SF-295 = test system: SF-295
HCT-116 = test system: HCT-116
U-251 = test system: U-251
SN12C = test system: SN12C
OVCAR-8 = test system: OVCAR-8

| Compound | GI50 (SK-MEL-2) | GI50 (K562) | GI50 (TK-10) | GI50 (IGROV-1) | GI50 (SW-620) | GI50 (SK-MEL-28) | GI50 (M14) | GI50 (HOP-92) | GI50 (EKVX) | GI50 (HCT-15) [µM] | GI50 (SF-268) | GI50 (SNB-19) | GI50 (SF-295) | GI50 (HCT-116) | GI50 (U-251) | GI50 (SN12C) | GI50 (OVCAR-8) |
| --- | --- | --- | --- | --- | --- | --- | --- | --- | --- | --- | --- | --- | --- | --- | --- | --- | --- |
| COC(=O)C(=O)C(C(=O)C(=O)Nc1cccc(C(C)=O)c1)c1nc2ccccc2nc1O (stereo not given) | > 100 µM (inactive) | > 100 µM (inactive) | > 100 µM (inactive) | > 100 µM (inactive) | > 100 µM (inactive) | > 100 µM (inactive) | > 100 µM (inactive) | > 100 µM (inactive) | 48.3 µM (inactive) | > 100 | > 100 µM (inactive) | > 100 µM (inactive) | > 100 µM (inactive) |  |  |  |  |
| CC(=O)NC1=C(C)C(=O)c2c(nc3n2CCC3OC(=O)CCl)C1=O (stereo not given) | 3 µM (inactive) | 2.19 µM (inactive) | 21 µM (inactive) | 11.8 µM (inactive) | 8.99 µM (inactive) | 17.2 µM (inactive) | 18.2 µM (inactive) | 2.33 µM (inactive) | 8.57 µM (inactive) |  | 10.3 µM (inactive) | 16.6 µM (inactive) | 16.1 µM (inactive) | 2.3 µM (inactive) | 3.3 µM (inactive) | 11.7 µM (inactive) | 4.1 µM (inactive) |
| CC(=O)NNc1nc(C)c(C(/C=C/c2ccc(Cl)cc2)=N\N=C(N)N)s1 |  | > 100 µM (inactive) | > 100 µM (inactive) | > 100 µM (inactive) | > 100 µM (inactive) | > 100 µM (inactive) | 82.6 µM (inactive) | > 100 µM (inactive) |  | > 100 | > 100 µM (inactive) | > 100 µM (inactive) | > 100 µM (inactive) | > 100 µM (inactive) | > 100 µM (inactive) | > 100 µM (inactive) | > 100 µM (inactive) |
| O=C1CSc2cc([N+](=O)[O-])ccc2N1 | > 100 µM (inactive) | > 100 µM (inactive) | > 100 µM (inactive) | > 100 µM (inactive) | > 100 µM (inactive) | > 100 µM (inactive) | > 100 µM (inactive) |  | > 100 µM (inactive) | > 100 | > 100 µM (inactive) | > 100 µM (inactive) | > 100 µM (inactive) | > 100 µM (inactive) | > 100 µM (inactive) | > 100 µM (inactive) | > 100 µM (inactive) |
| COC(=O)C12OCC34C(CC5C(C)C6=CC(=O)OC6=CC5(C)C3C(O)C1O)OC(=O)C(O)C24 (stereo not given) | 0.446 µM (active) | 0.205 µM (active) | 1.42 µM (inactive) | 0.23 µM (active) | 0.497 µM (active) | 0.169 µM (active) |  | 0.231 µM (active) | 0.716 µM (active) | 1.48 | 0.504 µM (active) | 0.0371 µM (active) | 1.53 µM (inactive) | 0.306 µM (active) | 0.233 µM (active) | 1.48 µM (inactive) | 0.935 µM (active) |
| Cc1ccc(S(=O)(=O)N/N=C/c2oc(-c3ccccc3Cl)c(-c3ccccc3Cl)c2[N+](=O)[O-])cc1 | 25 µM (inactive) | 12.9 µM (inactive) | 59 µM (inactive) | 24.9 µM (inactive) | 21 µM (inactive) | 22.9 µM (inactive) | 31 µM (inactive) | 28.5 µM (inactive) | 31.5 µM (inactive) |  | 36.1 µM (inactive) | 15.6 µM (inactive) | > 100 µM (inactive) | 6.37 µM (inactive) |  | 14.8 µM (inactive) | 22.3 µM (inactive) |
| CCC(=O)c1c(NOC2OCC(OC(C)=O)C(OC(C)=O)C2OC(C)=O)nc(OC)n(C)c1=O (stereo not given) |  | > 100 µM (inactive) | > 100 µM (inactive) | > 100 µM (inactive) | > 100 µM (inactive) | > 100 µM (inactive) | > 100 µM (inactive) | > 100 µM (inactive) | > 100 µM (inactive) | > 100 | > 100 µM (inactive) | > 100 µM (inactive) | > 100 µM (inactive) | > 100 µM (inactive) | > 100 µM (inactive) | > 100 µM (inactive) | > 100 µM (inactive) |
| CCOC(=O)C12CCCC1(O)N(NC(=O)c1cccc(Cl)c1)C(C)=C2C(=O)OC (stereo not given) | > 100 µM (inactive) | 96.6 µM (inactive) |  | > 100 µM (inactive) | > 100 µM (inactive) | > 100 µM (inactive) | > 100 µM (inactive) |  | 56.6 µM (inactive) | > 100 | > 100 µM (inactive) | > 100 µM (inactive) | 72.4 µM (inactive) | > 100 µM (inactive) | > 100 µM (inactive) | > 100 µM (inactive) | > 100 µM (inactive) |
| C[C@@H](NS(=O)(=O)c1ccc(NC(=O)c2ccccc2)cc1)C(=O)O | > 100 µM (inactive) | > 100 µM (inactive) | > 100 µM (inactive) | > 100 µM (inactive) | > 100 µM (inactive) | > 100 µM (inactive) | > 100 µM (inactive) | > 100 µM (inactive) | > 100 µM (inactive) | > 100 | > 100 µM (inactive) | > 100 µM (inactive) | > 100 µM (inactive) |  | > 100 µM (inactive) | > 100 µM (inactive) | > 100 µM (inactive) |
| CN(C(=O)C12C3C4C1C1C2C3C41C(=O)C(C)(C)C)C(C)(C)C (stereo not given) | > 100 µM (inactive) | > 100 µM (inactive) | > 100 µM (inactive) | > 100 µM (inactive) | > 100 µM (inactive) | > 100 µM (inactive) | > 100 µM (inactive) |  | > 100 µM (inactive) |  | > 100 µM (inactive) | > 100 µM (inactive) | > 100 µM (inactive) | > 100 µM (inactive) | > 100 µM (inactive) | > 100 µM (inactive) | > 100 µM (inactive) |
| CCN(CC)CC(=O)NC1c2ccccc2Oc2c(C)cccc21 (stereo not given) |  | 53.1 µM (inactive) | > 100 µM (inactive) | > 100 µM (inactive) | > 100 µM (inactive) | > 100 µM (inactive) | > 100 µM (inactive) |  | > 100 µM (inactive) | > 100 | > 100 µM (inactive) | > 100 µM (inactive) |  | 95.5 µM (inactive) |  | > 100 µM (inactive) | > 100 µM (inactive) |
| CC(=O)C1CCN(c2ccccc2)C1 (stereo not given) | > 100 µM (inactive) | > 100 µM (inactive) | > 100 µM (inactive) | > 100 µM (inactive) | > 100 µM (inactive) | > 100 µM (inactive) | > 100 µM (inactive) | > 100 µM (inactive) | > 100 µM (inactive) |  | > 100 µM (inactive) | > 100 µM (inactive) | > 100 µM (inactive) | > 100 µM (inactive) | > 100 µM (inactive) | > 100 µM (inactive) | > 100 µM (inactive) |
| N#CC12Cc3ccc4c(c3-c3cccc(c31)CCN2C(=O)c1ccccc1)OCO4 (stereo not given) |  | > 100 µM (inactive) | > 100 µM (inactive) | > 100 µM (inactive) | > 100 µM (inactive) | > 100 µM (inactive) | > 100 µM (inactive) | 36.2 µM (inactive) | > 100 µM (inactive) | > 100 | > 100 µM (inactive) | > 100 µM (inactive) | > 100 µM (inactive) | > 100 µM (inactive) | > 100 µM (inactive) | > 100 µM (inactive) | > 100 µM (inactive) |
| O=CC1=CCC2c3[nH]c4ccccc4c3CCN2C1 (stereo not given) | 90.8 µM (inactive) | 130 µM (inactive) | 259 µM (inactive) | 125 µM (inactive) | 122 µM (inactive) | 90.6 µM (inactive) |  | 111 µM (inactive) | > 396 µM (inactive) | 68.1 | 167 µM (inactive) | 258 µM (inactive) | 106 µM (inactive) | 61.7 µM (inactive) | 80 µM (inactive) | 102 µM (inactive) | 139 µM (inactive) |
| Clc1ccc(CCn2cncn2)c(Cl)c1 |  | > 100 µM (inactive) | > 100 µM (inactive) | > 100 µM (inactive) | > 100 µM (inactive) | > 100 µM (inactive) | > 100 µM (inactive) | > 100 µM (inactive) | > 100 µM (inactive) | > 100 | > 100 µM (inactive) | > 100 µM (inactive) | > 100 µM (inactive) | > 100 µM (inactive) | > 100 µM (inactive) | > 100 µM (inactive) | > 100 µM (inactive) |
| CC#CC(=O)Nc1ccccc1CC(c1c[nH]c2ccccc12)c1c[nH]c2ccccc12 | 18.2 µM (inactive) | 16.1 µM (inactive) | 29.9 µM (inactive) | 16.4 µM (inactive) | 16.2 µM (inactive) | 15.7 µM (inactive) | 15 µM (inactive) |  | 14.6 µM (inactive) | 14.3 | 22.7 µM (inactive) | 18.5 µM (inactive) | 20.3 µM (inactive) |  |  | 15.1 µM (inactive) | 19.1 µM (inactive) |
| COC(=O)C1CCC2(C)[C@H](CCC3O[C@]32C)[C@@]1(C)CC(=O)c1ccoc1 (stereo not given in full) |  | 46.1 µM (inactive) | 36.9 µM (inactive) | 58.6 µM (inactive) | > 100 µM (inactive) | > 100 µM (inactive) | > 100 µM (inactive) |  | 18.7 µM (inactive) | 81.1 | 48.4 µM (inactive) | 33.9 µM (inactive) | > 100 µM (inactive) | 65.6 µM (inactive) | 36.6 µM (inactive) | > 100 µM (inactive) | > 100 µM (inactive) |
| COC(=O)CC(C(C(C)=O)C(=O)OCc1ccccc1)N1C(=O)OCC1c1ccccc1 (stereo not given) | > 100 µM (inactive) | > 100 µM (inactive) | > 100 µM (inactive) | 50 µM (inactive) | > 100 µM (inactive) | > 100 µM (inactive) | > 100 µM (inactive) |  | > 100 µM (inactive) | > 100 | > 100 µM (inactive) | > 100 µM (inactive) | > 100 µM (inactive) | > 100 µM (inactive) | 65.2 µM (inactive) | > 100 µM (inactive) | > 100 µM (inactive) |
